Laboratory results reported in patent publication EP4653003A1, “PHARMACEUTICAL COMPOSITION HAVING CERIUM COMPOUND CONTAINING TRIVALENT CERIUM AS ACTIVE INGREDIENT” (Applause Pharma Co., Ltd., priority 2023, dated 2024).

Columns and labels:
[1] = system: adenine nephropathy model rats; experiment: Uremic toxin lowering action by cerium chloride: indoxyl sulfate in whole blood by HPLC; type: in vivo; details: blood collected by dissection; feed of adenine combined with cerium chloride
Method: A solvent for precipitation (5.56 µmol/L 2-naphthalenesulfonic acid solution in acetonitrile) and a blood sample (whole blood) were mixed in a 1.5 mL polypropylene tube, the mixture was allowed to stand still at room temperature, and then centrifuged to cause solid-liquid separation, thereby obtaining a supernatant. A 10 mmol/L aqueous ammonium acetate solution was added to the thus obtained supernatant, and the mixture was centrifuged to obtain a supernatant. The operation above diluted the blood sample 50 times, with the final concentration of the thus-added 2-naphthalenesulfonic acid adjusted to 1 µmol/L.
Fig. 19 illustrates a diagram, with the indoxyl sulfate concentration in the blood sample collected by dissection plotted on the ordinate, and with the total mole amount of cerium contained in 100 g of feed plotted on the abscissa.

[2] = system: adenine nephropathy model rats; type: in vivo, Slc:Wistar rat (male)
Source text: • · Rat: Slc:Wistar rat (male) delivered at 12 weeks of age (Japan SLC, Inc.) • · Powder feed: AIN-93G powder feed (Funabashi Farm Co., Ltd.) • · Feed for laboratory animal: Labo MR Stock (Nosan Corporation) • · Adenine: (Tokyo Chemical Industry Co., Ltd.) • · Cerium oxide dispersion: Cerium oxide dispersion prepared in [Preparation of Cerium Oxide Dispersion]
• (i) Weighed was 250 g of a powder feed, which was then kneaded with a kitchen machine. • (ii) After kneaded with a kitchen machine for 3 minutes, the feed adhered on the wall surface was scraped off, and then kneaded again for 3 minutes. Approximately 100 mL of hot water was then added evenly. • (iii) The feed was once put together by hands, and further kneaded with the kitchen machine until it became homogeneous. • (iv) The thus kneaded feed was shaped into a rod through a sausage machine. • (v) The thus shaped feed was cut into a cylindrical shape approximately 2.5 cm in diameter and 1.5 cm in thickness. • (vi) The thus shaped cylindrical feed was dried at 38°C in an incubator for two days. • (vii) The feed was weighed to estimate a proportion of residual water content, and dried until the proportion drops to 10% or below. • (viii) The prepared feed was put in a zipper bag, and stored in a refrigerator.
A special feed was prepared by modifying step (ii) for the normal group feed, as described below. (ii) (Ade): While keeping the content under kneading, 0.625 g of adenine was added in small portions, the content was kneaded with a kitchen machine for 3 minutes, the feed adhered on the wall surface was scraped off, and the content was kneaded again for 3 minutes. Approximately 100 mL of hot water was then added evenly.
A special feed was prepared by modifying steps (i) and (ii) for (2) Adenine Group Feed, as described below. • (i) (Ade + Dispersion (A)): Weighed was 246.1 g of the powder feed, which was then kneaded with a kitchen machine. • (ii) (Ade + Dispersion (A)): While keeping the content under kneading, 0.625 g of adenine was added in small portions, the content was kneaded with the kitchen machine for 3 minutes, the feed adhered on the wall surface was scraped off, and the content was kneaded again for 3 minutes. Next, while keeping the content under kneading, 32.7 g of cerium oxide dispersion was added in small portions, the content was kneaded with the kitchen machine for 3 minutes, the feed adhered on the wall surface was scraped off, and the content was kneaded again for 3 minutes. Approximately 70 mL of hot water was then added evenly. […]

[3] = blood collected by dissection on Day 28, substance mixed in adenine feed, trend against content in 100 g feed

cerium(III) chloride heptahydrate [cerium chloride]
indoxyl sulfate concentration in whole blood [1]: declining tendency | blood urea nitrogen (BUN) [2, 3]: decline as the cerium chloride content in the feed increased | serum creatinine (CRE) [2, 3]: decline as the cerium chloride content in the feed increased | serum phosphorus (IP) [2, 3]: decline as the cerium chloride content in the feed increased | alanine aminotransferase (ALT) ([2]; rat, in vivo): equivalent to that in the normal group
